The test system of experiment [1] is vascular smooth muscle tissue from the rabbit aorta. Kind of experiment: Rabbit Potassium Depolarized Blood Vessel Test (Test 2). The format is cell-based. Conditions: Oryctolagus cuniculus, 10 min; test compound 10^-6 M, 10 minute exposure, 30 mM potassium chloride, rabbit aorta strips, 37° C.; read-out: Test 2 (% Inhibition) of potassium-induced contraction. From the text:
This tissue can be made to contract when exposed to a depolarizing solution containing an elevated potassium ion concentration and normal amounts of calcium ions. A test compound added to the solution produces a dose-dependent relaxation of the contracted rabbit aortic tissue which gives an indication of calcium antagonist activity of the test compound. This test is described below as the "Rabbit Potassium Depolarized Blood Vessel Test".
In the Rabbit Potassium Depolarized Blood Vessel Test, rabbits are killed by cervical dislocation, and the thoracic aorta is removed. Helical strips, approximately 30-40 mm in length, are cut from the aorta and are suspended in tissue baths of oxygenated Krebs bicarbonate buffer at 37° C. under a resting tension of 4 g. After an equilibration period of approximately 1-2 hours, the strips are challenged with a 30 mM potassium chloride solution and the peak contraction is measured. Following measurement of the peak contraction, the strips are washed and re-equilibrated for an hour in oxygenated Krebs bicarbonate buffer. After the re-equilibration of the aorta strips, the test compound was added to the bath at a concentration of 10-^6 M and the strips were allowed to stand for 10 minutes. After the 10 minute exposure to the test compound, the tissue strips were rechallenged with 30 mM potassium chloride solution and the maximum contraction was measured. The specificity of any inhibition of contraction is determined by addition of 10 mM phenylephrine.
The percent inhibition of contraction is calculated from the formula: […]
where CT is the peak contraction in the presence of the test compound and Cc is the peak contraction without test compound.
Test results for exemplary compounds of Formula I are provided in Table I below, in which the Rabbit Potassium Depolarized Blood Vessel Test is called "Test 2", the Nitrendipine Binding Assay is called "Test 1" and the Spontaneously Hypertensive Rat test is called "Test 3".

Experiment [2] concerns the target calcium channel antagonist receptors (rabbit heart) (Oryctolagus cuniculus, UniProt P15381). As to the kind of experiment: Nitrendipine Binding Assay (Test 1). The arrangement: species or system rabbit (female New Zealand white). The conditions noted are these: 3H-nitrendipine (0.05-0.50 nM), rabbit heart membrane, 90 min at 4° C., pH 7.4; read-out: Test 1 (IC50): concentration required to achieve 50% displacement of specifically-bound nitrendipine.

For experiment [3], the system named is spontaneously hypertensive rats. As to the kind of experiment: Spontaneously Hypertensive Rat Test (Test 3). The format is in vivo. Conditions: 100 mg/kg body weight, four male spontaneously hypertensive rats, indirect tail-cuff method. The protocol: Alternatively, one may evaluate the calcium antagonist activity of a test compound by measuring the displacement of nitrendipine to calcium channel antagonist receptors by the test compound according to the methods of Bolger, et al., Biochem. Biophys. Res. Comm., 104(4), 1604-1609 (1982) and Ehlert, et al., Life Sciences, 30, 2191-2202 (1982). In such a test, the amount of specifically-bound nitrendipine to rabbit heart is determined in the presence and absence of test compound. The percent nitrendipine displacement is directly related to the efficacy of the test compound as a calcium antagonist. This assay is described below as the "Nitrendipine Binding Assay". […] Circ. J., 270, 282 (1963). The general techniques for conducting such tests are disclosed in B. Vagnovsky "Automatic Blood-Pressure Measurements in Small Animals", American Laboratory, April, 1973, and "Techniques for the Measurement of Blood Pressure", Institute of Laboratory Animal Resouces NEWS, Vol. XIX (3), G 11-12, Spring, 1976. In this test a group of four male spontaneously hypertensive rats having systolic blood pressures greater than 150 mm Hg are used for each test compound. Systolic blood pressure is measured by the indirect method using a tail-cuff. The compounds are administered at a dose of 100 mg/kg body weight, and the average of the peak decrease in blood pressure is calculated for the four rats. Test results for exemplary compounds of Formula I are provided in Table I below, in which the Rabbit Potassium Depolarized Blood Vessel Test is called "Test 2", the Nitrendipine Binding Assay is called "Test 1" and the Spontaneously Hypertensive Rat test is called "Test 3".

pIC50: −log10 of the molar value.

calcium channel antagonist receptors (rabbit heart), sequence (P15381 whole entry, other chains not shown): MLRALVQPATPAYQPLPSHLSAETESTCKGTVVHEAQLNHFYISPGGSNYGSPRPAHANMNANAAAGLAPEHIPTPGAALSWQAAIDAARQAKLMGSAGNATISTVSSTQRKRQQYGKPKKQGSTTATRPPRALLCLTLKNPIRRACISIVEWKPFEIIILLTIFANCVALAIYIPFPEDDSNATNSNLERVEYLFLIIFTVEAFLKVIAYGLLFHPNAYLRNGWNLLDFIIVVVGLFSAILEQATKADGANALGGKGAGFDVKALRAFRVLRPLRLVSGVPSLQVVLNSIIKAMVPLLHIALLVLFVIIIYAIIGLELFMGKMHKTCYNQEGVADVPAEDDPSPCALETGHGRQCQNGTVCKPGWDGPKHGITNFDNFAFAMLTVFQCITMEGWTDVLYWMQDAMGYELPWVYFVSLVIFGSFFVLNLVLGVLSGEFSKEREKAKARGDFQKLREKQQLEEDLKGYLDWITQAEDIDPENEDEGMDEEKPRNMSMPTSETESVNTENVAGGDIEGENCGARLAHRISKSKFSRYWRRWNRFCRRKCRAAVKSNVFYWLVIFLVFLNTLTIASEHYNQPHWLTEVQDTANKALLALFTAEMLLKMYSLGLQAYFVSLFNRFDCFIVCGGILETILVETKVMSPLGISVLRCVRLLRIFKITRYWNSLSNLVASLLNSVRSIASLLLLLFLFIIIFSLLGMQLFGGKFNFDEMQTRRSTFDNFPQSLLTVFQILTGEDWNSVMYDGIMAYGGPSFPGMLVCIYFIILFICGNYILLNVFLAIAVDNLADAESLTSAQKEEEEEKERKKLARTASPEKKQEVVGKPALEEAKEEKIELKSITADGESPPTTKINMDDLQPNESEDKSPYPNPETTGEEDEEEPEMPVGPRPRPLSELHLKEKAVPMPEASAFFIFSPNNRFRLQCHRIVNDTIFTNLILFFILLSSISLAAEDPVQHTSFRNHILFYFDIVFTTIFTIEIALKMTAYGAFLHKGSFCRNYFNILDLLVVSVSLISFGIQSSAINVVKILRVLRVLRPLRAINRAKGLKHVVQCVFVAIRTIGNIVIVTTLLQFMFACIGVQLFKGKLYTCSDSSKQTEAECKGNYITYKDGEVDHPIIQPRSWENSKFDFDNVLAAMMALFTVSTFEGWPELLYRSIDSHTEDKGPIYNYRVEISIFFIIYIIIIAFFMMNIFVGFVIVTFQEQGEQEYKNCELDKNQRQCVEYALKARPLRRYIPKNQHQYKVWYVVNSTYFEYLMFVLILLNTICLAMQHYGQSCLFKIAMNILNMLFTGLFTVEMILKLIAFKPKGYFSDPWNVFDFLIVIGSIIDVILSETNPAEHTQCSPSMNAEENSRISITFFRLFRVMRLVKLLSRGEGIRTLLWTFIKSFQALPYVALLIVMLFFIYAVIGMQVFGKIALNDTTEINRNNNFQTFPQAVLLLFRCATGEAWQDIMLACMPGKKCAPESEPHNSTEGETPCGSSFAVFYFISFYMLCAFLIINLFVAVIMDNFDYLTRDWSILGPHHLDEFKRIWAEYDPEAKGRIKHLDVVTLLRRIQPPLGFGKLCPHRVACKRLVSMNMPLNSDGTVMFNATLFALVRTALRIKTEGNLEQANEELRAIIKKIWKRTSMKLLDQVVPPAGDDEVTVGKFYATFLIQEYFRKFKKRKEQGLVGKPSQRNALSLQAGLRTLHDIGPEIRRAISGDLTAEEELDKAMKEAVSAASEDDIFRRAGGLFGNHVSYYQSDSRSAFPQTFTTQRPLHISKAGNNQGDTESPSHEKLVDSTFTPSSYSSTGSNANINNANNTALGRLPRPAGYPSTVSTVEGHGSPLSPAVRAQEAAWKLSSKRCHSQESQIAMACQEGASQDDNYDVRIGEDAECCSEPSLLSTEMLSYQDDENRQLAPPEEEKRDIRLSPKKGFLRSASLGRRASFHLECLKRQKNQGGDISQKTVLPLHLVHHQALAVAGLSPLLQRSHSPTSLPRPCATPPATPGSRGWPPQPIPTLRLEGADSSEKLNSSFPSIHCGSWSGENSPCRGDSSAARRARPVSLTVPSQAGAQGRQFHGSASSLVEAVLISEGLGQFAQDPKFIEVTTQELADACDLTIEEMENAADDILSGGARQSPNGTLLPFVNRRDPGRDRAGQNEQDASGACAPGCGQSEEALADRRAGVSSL
calcium channel antagonist receptors (rabbit heart), sequence (P13806 27-960 partner limits assumed, other chains not shown): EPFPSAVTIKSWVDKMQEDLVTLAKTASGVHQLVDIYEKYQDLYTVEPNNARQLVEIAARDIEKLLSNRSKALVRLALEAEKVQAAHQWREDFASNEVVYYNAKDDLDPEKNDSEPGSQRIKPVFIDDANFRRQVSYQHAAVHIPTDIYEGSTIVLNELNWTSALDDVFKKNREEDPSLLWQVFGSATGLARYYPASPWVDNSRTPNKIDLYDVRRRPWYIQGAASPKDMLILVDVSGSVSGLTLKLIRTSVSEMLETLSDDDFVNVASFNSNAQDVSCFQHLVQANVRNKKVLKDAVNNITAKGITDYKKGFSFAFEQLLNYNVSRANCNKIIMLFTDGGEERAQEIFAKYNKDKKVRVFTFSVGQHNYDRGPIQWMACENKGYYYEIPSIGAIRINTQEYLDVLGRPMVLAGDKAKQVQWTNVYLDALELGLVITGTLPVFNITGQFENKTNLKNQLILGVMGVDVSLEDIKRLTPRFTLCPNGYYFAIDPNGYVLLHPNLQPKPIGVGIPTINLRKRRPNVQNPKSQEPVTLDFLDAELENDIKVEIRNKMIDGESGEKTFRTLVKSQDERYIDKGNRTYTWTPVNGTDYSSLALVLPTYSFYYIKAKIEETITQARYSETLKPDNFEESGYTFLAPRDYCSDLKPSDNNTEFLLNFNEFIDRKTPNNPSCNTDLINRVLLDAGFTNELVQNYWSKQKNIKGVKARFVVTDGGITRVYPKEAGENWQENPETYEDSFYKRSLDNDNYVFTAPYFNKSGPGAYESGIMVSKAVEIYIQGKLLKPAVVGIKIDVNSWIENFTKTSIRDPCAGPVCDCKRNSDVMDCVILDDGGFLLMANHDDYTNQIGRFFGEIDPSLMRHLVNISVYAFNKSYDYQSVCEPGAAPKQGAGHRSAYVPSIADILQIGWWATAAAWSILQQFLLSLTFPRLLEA
calcium channel antagonist receptors (rabbit heart), sequence (P13806 961-1106 partner limits assumed, other chains not shown): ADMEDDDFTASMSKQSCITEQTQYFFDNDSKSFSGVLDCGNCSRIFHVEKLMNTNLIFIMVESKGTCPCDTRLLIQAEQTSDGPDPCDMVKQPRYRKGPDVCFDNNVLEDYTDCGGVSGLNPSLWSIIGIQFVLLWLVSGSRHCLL

Turning to `CC1=C(C(=O)OCCCBr)C(c2cccc(Cl)c2)c2c(n(C)c(=O)n(C)c2=O)N1` (stereo not shown) [XXIX], the inhibition – broadly, the relative decrease from the control value, in per cent – at 1 µM in experiment [1] is 44%. In addition, in experiment [2], the pIC50 is 6.41.
In the case of `CC1=C(C(=O)OCCN(C)Cc2ccccc2)C(C2CCCCC2)c2c(n(C)c(=O)n(C)c2=O)N1` (stereo not shown) [XVII], the “Test 3 (mmHg, 100 mpk): average of the peak decrease in systolic blood pressure” value in experiment [3] is -30 mmHg. In experiment [1], the inhibition at 1 µM is 18%. Also, in experiment [2], the pIC50 was 5.70.
On to `CC1=C(C(=O)OCCBr)C(c2cccc(C(F)(F)F)c2)c2c(n(C)c(=O)n(C)c2=O)N1` (stereo not shown) [XXV], for which, in experiment [1], the inhibition at 1 µM came out at 41%. The pIC50 in experiment [2] is 5.96.
With `COC(=O)C1=C(C)Nc2c(c(=O)n(C)c(=O)n2C)C1c1cccc([N+](=O)[O-])c1` (stereo not shown) [Example I, Methyl 5,8-Dihydro-1,3,7-trimethyl-5-(3-nitrophenyl)-2,4-dioxopyrido[2,3-d]pyrimidine-6-carboxylate], the “Test 3 (mmHg, 100 mpk): average of the peak decrease in systolic blood pressure” value in experiment [3] is given as -11 mmHg. For the same molecule, the inhibition at 1 µM in experiment [1] was found to be 54%. The pIC50 in experiment [2] was 6.52.
The like results for `CC1=C(C(=O)OCCN(C)Cc2ccccc2)C(c2cccc(C(F)(F)F)c2)c2c(n(C)c(=O)n(C)c2=O)N1` (stereo not shown) [XVIII] were, in that order, -37 mmHg, 33% and 5.47.
Consider `CC1=C(C(=O)OCCBr)C(c2ccccc2Cl)c2c(n(C)c(=O)n(C)c2=O)N1` (stereo not shown) [XXVIII], for which, in experiment [1], the inhibition at 1 µM amounted to 23%. In addition, the pIC50 in experiment [2] is 6.76.
`CC1=C(C(=O)OCCN(C)Cc2ccccc2)C(c2ccccc2Cl)c2c(n(C)c(=O)n(C)c2=O)N1` (stereo not shown) [XIV]: in experiment [3], the “Test 3 (mmHg, 100 mpk): average of the peak decrease in systolic blood pressure” value is reported as -40 mmHg. Also, in experiment [1], the inhibition at 1 µM came out at 50%. For the same molecule, in experiment [2], the pIC50 is 6.00.
The like results for `COC(=O)C1=C(C)Nc2c(c(=O)n(C)c(=O)n2C)C1c1cccc(Cl)c1` (stereo not shown) [Example II, Methyl 5-(3-Chlorophenyl)-5,8-dihydro-1,3,7-trimethyl-2,4-dioxopyrido[2,3-d]pyrimidine-6-carboxylate] were, in that order, -31 mmHg, 3% and 6.00.
Turning to `CC1=C(C(=O)OCCN(C)Cc2ccccc2)C(c2cccc(F)c2)c2c(n(C)c(=O)n(C)c2=O)N1` (stereo not shown) [VIII], the “Test 3 (mmHg, 100 mpk): average of the peak decrease in systolic blood pressure” value in experiment [3] is -47 mmHg. Besides, the inhibition at 1 µM in experiment [1] was 48%. Further, the pIC50 in experiment [2] was 6.30.
Take `CC1=C(C(=O)OCCN(C)Cc2ccccc2)C(c2cc(Cl)cc(Cl)c2)c2c(n(C)c(=O)n(C)c2=O)N1` (stereo not shown) [XIX]: the “Test 3 (mmHg, 100 mpk): average of the peak decrease in systolic blood pressure” value in experiment [3] was -37 mmHg. The inhibition at 1 µM in experiment [1] turned out to be 28%. The pIC50 in experiment [2] is 5.64.
Take `CC1=C(C(=O)OCCBr)C(c2cccc([N+](=O)[O-])c2)c2c(n(C)c(=O)n(C)c2=O)N1` (stereo not shown) [XXIV]: the “Test 3 (mmHg, 100 mpk): average of the peak decrease in systolic blood pressure” value in experiment [3] was -10 mmHg. Besides, the inhibition at 1 µM in experiment [1] came to 26%. In addition, the pIC50 in experiment [2] was 6.96.
In the same order, the values of `CC1=C(C(=O)OCCN(C)Cc2ccccc2)C(c2ccccc2[N+](=O)[O-])c2c(n(C)c(=O)n(C)c2=O)N1` (stereo not shown) [XII] are -16 mmHg, 27% and 5.60.
For `CC1=C(C(=O)OCCN(C)Cc2ccccc2)C(c2cccc(Cl)c2)c2c([nH]c(=S)[nH]c2=O)N1` (stereo not shown) [XX], the “Test 3 (mmHg, 100 mpk): average of the peak decrease in systolic blood pressure” value in experiment [3] is reported as -16 mmHg. Besides, the pIC50 in experiment [2] was below 6.00.
The like results for `COC(=O)C1=C(C)Nc2c(c(=O)n(C)c(=O)n2C)C1c1ccco1` (stereo not shown) [Example XV] were, in that order, -22 mmHg and 4.00.
Regarding `CC1=C(C(=O)OCCN(C)Cc2ccccc2)C(c2cccc(Cl)c2)c2c([nH]c(=O)[nH]c2=O)N1` (stereo not shown) [VII], the pIC50 in experiment [2] was 5.10.
Still for that read-out and setting: the result for `CC1=C(C(=O)OCC(F)(F)F)C(c2cccc(Cl)c2)c2c(n(C)c(=O)n(C)c2=O)N1` (stereo not shown) [XXVII] reads 6.07.
With `COc1cccc(C2C(C(=O)OCCN(C)Cc3ccccc3)=C(C)Nc3c2c(=O)n(C)c(=O)n3C)c1` (stereo not shown) [IX], the “Test 3 (mmHg, 100 mpk): average of the peak decrease in systolic blood pressure” value in experiment [3] is -57 mmHg. Moreover, the inhibition at 1 µM in experiment [1] amounted to 8%. The pIC50 in experiment [2] is 5.55.
In the case of `CC1=C(C(=O)OCCN(C)Cc2ccccc2)C(c2ccccc2)c2c(n(C)c(=O)n(C)c2=O)N1` (stereo not shown) [XI], the “Test 3 (mmHg, 100 mpk): average of the peak decrease in systolic blood pressure” value in experiment [3] is on record as -28 mmHg. Also, the inhibition at 1 µM in experiment [1] amounted to 12%. The pIC50 in experiment [2] was 5.89.
The like results for `CC1=C(C(=O)OCCN(C)Cc2ccccc2)C(c2cccc(C#N)c2)c2c(n(C)c(=O)n(C)c2=O)N1` (stereo not shown) [V] were, in that order, -31 mmHg, 26% and 6.19.
Consider `CC1=C(C(=O)OCCN(C)Cc2ccccc2)C(c2ccco2)c2c(n(C)c(=O)n(C)c2=O)N1.Cl.O` (single isomer, unassigned) [Example III, 2-(N-Benzyl-N-methylamino)ethyl 5-(Furan-2-yl)-5,8-dihydro-1,3,7-trimethyl-2,4-dioxopyrido[2,3-d]pyrimidine-6-carboxylate Monohydrochloride Monohydrate], for which the “Test 3 (mmHg, 100 mpk): average of the peak decrease in systolic blood pressure” value in experiment [3] is recorded as -22 mmHg. For the same molecule, in experiment [2], the pIC50 is 5.22.
In the same order, the values of `CC1=C(C(=O)OCCN(C)Cc2ccccc2)C(c2cccc([N+](=O)[O-])c2)c2c([nH]c(=O)[nH]c2=O)N1` (stereo not shown) [XXII] are -11 mmHg and 5.11.
Regarding `CC1=C(C(=O)OCCN(C)Cc2ccccc2)C(c2cccc(C)c2)c2c(n(C)c(=O)n(C)c2=O)N1` (stereo not shown) [Example X], in experiment [3], the “Test 3 (mmHg, 100 mpk): average of the peak decrease in systolic blood pressure” value is -12 mmHg. In experiment [1], the inhibition at 1 µM came out at 16%. The pIC50 in experiment [2] is 5.49.
`CC1=C(C(=O)OCCBr)C(c2cccc(Cl)c2)c2c(n(C)c(=O)n(C)c2=O)N1` (stereo not shown) [XXIII]: the “Test 3 (mmHg, 100 mpk): average of the peak decrease in systolic blood pressure” value in experiment [3] was -16 mmHg. Moreover, in experiment [1], the inhibition at 1 µM came out at 54%. In experiment [2], the pIC50 is 7.11.
As to `CC1=C(C(=O)OCCN(C)Cc2ccccc2)C(c2ccccc2[N+](=O)[O-])c2c(n(C)c(=O)n(C)c2=O)N1` (stereo not shown) [XIII], the “Test 3 (mmHg, 100 mpk): average of the peak decrease in systolic blood pressure” value in experiment [3] is listed as -35 mmHg.
Regarding `CC1=C(C(=O)OCCN(C)Cc2ccccc2)C(c2ccco2)c2c(n(C)c(=O)n(C)c2=O)N1` (single isomer, unassigned) [Example XVI, 2-(N-benzyl-N-methylamino)ethyl-5-(furan-2-yl)-5,8-dihydro-1,3,7-trimethyl-2,4-dioxopyrido [2,3-d]pyrimidine-6-carboxylate], the pIC50 in experiment [2] was 5.70.
The same measure, in the same setting: the same measure for `CC1=C(C(=O)OCCF)C(c2cccc(Cl)c2)c2c(n(C)c(=O)n(C)c2=O)N1` (stereo not shown) [XXVI]: 6.05.
For `CC1=C(C(=O)OCCN(C)Cc2ccccc2)C(c2cccc(Cl)c2)c2c(n(C)c(=O)n(C)c2=O)N1` (stereo not shown) [VI, 2-(N-benzyl-N-methylaminoethyl) 5-(3-chlorophenyl)-5,8-dihydro-1,3,7-trimethyl-2,4-dioxopyrido[2,3-d]pyrimidine-6-carboxylate], in experiment [3], the “Test 3 (mmHg, 100 mpk): average of the peak decrease in systolic blood pressure” value is on record as -50 mmHg. In experiment [1], the inhibition at 1 µM came to 52%. Moreover, the pIC50 in experiment [2] is 7.00.
The like results for `CC1=C(C(=O)OCCN(C)Cc2ccccc2)C(c2ccc(C(F)(F)F)cc2)c2c(n(C)c(=O)n(C)c2=O)N1` (stereo not shown) [XXI] were, in that order, -16 mmHg, 6% and 5.64.

For the origin of these results see patent publication US4596805A, “Substituted dioxopyridopyrimidines” (Ortho Pharmaceutical Corporation, priority 1984, dated 1986).
